Measurements published in ChEMBL document CHEMBL4665642, “Anticancer profile of newly synthesized BRAF inhibitors possess 5-(pyrimidin-4-yl)imidazo[2,1-b]thiazole scaffold” (Bioorg Med Chem, 2019).

Experiments:
Assay type in all cases: functional
Settings in all cases: read-out: Activity
SN12C = experiment: Cytotoxicity against human SN12C cells assessed as cell viability at 10 uM incubated for 48 hrs by sulforhodamine B assay relative to control
CAKI-1 = experiment: Cytotoxicity against human CAKI-1 cells assessed as cell viability at 10 uM incubated for 48 hrs by sulforhodamine B assay relative to control
ACHN = experiment: Cytotoxicity against human ACHN cells assessed as cell viability at 10 uM incubated for 48 hrs by sulforhodamine B assay relative to control
NCI-H460 = experiment: Cytotoxicity against human NCI-H460 cells assessed as cell viability at 10 uM incubated for 48 hrs by sulforhodamine B assay relative to control
786-0 = experiment: Cytotoxicity against human 786-0 cells assessed as cell viability at 10 uM incubated for 48 hrs by sulforhodamine B assay relative to control
HL-60(TB) = experiment: Cytotoxicity against human HL-60(TB) cells assessed as cell viability at 10 uM incubated for 48 hrs by sulforhodamine B assay relative to control
HOP-92 = experiment: Cytotoxicity against human HOP-92 cells assessed as cell viability at 10 uM incubated for 48 hrs by sulforhodamine B assay relative to control
LOX IMVI = experiment: Cytotoxicity against human LOX IMVI cells assessed as cell viability at 10 uM incubated for 48 hrs by sulforhodamine B assay relative to control
SK-OV-3 = experiment: Cytotoxicity against human SK-OV-3 cells assessed as cell viability at 10 uM incubated for 48 hrs by sulforhodamine B assay relative to control
SK-MEL-28 = experiment: Cytotoxicity against human SK-MEL-28 cells assessed as cell viability at 10 uM incubated for 48 hrs by sulforhodamine B assay relative to control
K562 = experiment: Cytotoxicity against human K562 cells assessed as cell viability at 10 uM incubated for 48 hrs by sulforhodamine B assay relative to control
NCI-H23 = experiment: Cytotoxicity against human NCI-H23 cells assessed as cell viability at 10 uM incubated for 48 hrs by sulforhodamine B assay relative to control
NCI/ADR-RES = experiment: Cytotoxicity against human NCI/ADR-RES cells assessed as cell viability at 10 uM incubated for 48 hrs by sulforhodamine B assay relative to control
TK-10 = experiment: Cytotoxicity against human TK-10 cells assessed as cell viability at 10 uM incubated for 48 hrs by sulforhodamine B assay relative to control
RPMI-8226 = experiment: Cytotoxicity against human RPMI-8226 cells assessed as cell viability at 10 uM incubated for 48 hrs by sulforhodamine B assay relative to control
KM12 = experiment: Cytotoxicity against human KM12 cells assessed as cell viability at 10 uM incubated for 48 hrs by sulforhodamine B assay relative to control
SF-295 = experiment: Cytotoxicity against human SF-295 cells assessed as cell viability at 10 uM incubated for 48 hrs by sulforhodamine B assay relative to control
SNB-19 = experiment: Cytotoxicity against human SNB-19 cells assessed as cell viability at 10 uM incubated for 48 hrs by sulforhodamine B assay relative to control
SF-268 = experiment: Cytotoxicity against human SF-268 cells assessed as cell viability at 10 uM incubated for 48 hrs by sulforhodamine B assay relative to control
PC-3 = experiment: Cytotoxicity against human PC-3 cells assessed as cell viability at 10 uM incubated for 48 hrs by sulforhodamine B assay relative to control
BT-549 = experiment: Cytotoxicity against human BT-549 cells assessed as cell viability at 10 uM incubated for 48 hrs by sulforhodamine B assay relative to control
HOP-62 = experiment: Cytotoxicity against human HOP-62 cells assessed as cell viability at 10 uM incubated for 48 hrs by sulforhodamine B assay relative to control
NCI-H226 = experiment: Cytotoxicity against human NCI-H226 cells assessed as cell viability at 10 uM incubated for 48 hrs by sulforhodamine B assay relative to control
HCT-29 = experiment: Cytotoxicity against human […] cells assessed as cell viability at 10 uM incubated for 48 hrs by sulforhodamine B assay relative to control
A549 = experiment: Cytotoxicity against human A549 cells assessed as cell viability at 10 uM incubated for 48 hrs by sulforhodamine B assay relative to control
MDA-MB-468 = experiment: Cytotoxicity against human MDA-MB-468 cells assessed as cell viability at 10 uM incubated for 48 hrs by sulforhodamine B assay relative to control
CCRF-CEM = experiment: Cytotoxicity against human CCRF-CEM cells assessed as cell viability at 10 uM incubated for 48 hrs by sulforhodamine B assay relative to control
DU-145 = experiment: Cytotoxicity against human DU-145 cells assessed as cell viability at 10 uM incubated for 48 hrs by sulforhodamine B assay relative to control
M14 = experiment: Cytotoxicity against human M14 cells assessed as cell viability at 10 uM incubated for 48 hrs by sulforhodamine B assay relative to control
HCT-15 = experiment: Cytotoxicity against human HCT-15 cells assessed as cell viability at 10 uM incubated for 48 hrs by sulforhodamine B assay relative to control
IGROV-1 = experiment: Cytotoxicity against human IGROV-1 cells assessed as cell viability at 10 uM incubated for 48 hrs by sulforhodamine B assay relative to control
OVCAR-4 = experiment: Cytotoxicity against human OVCAR-4 cells assessed as cell viability at 10 uM incubated for 48 hrs by sulforhodamine B assay relative to control
MDA-MB-231 = experiment: Cytotoxicity against human MDA-MB-231 cells assessed as cell viability at 10 uM incubated for 48 hrs by sulforhodamine B assay relative to control
OVCAR-3 = experiment: Cytotoxicity against human OVCAR-3 cells assessed as cell viability at 10 uM incubated for 48 hrs by sulforhodamine B assay relative to control
MCF7 = experiment: Cytotoxicity against human MCF7 cells assessed as cell viability at 10 uM incubated for 48 hrs by sulforhodamine B assay relative to control
SR = experiment: Cytotoxicity against human SR cells assessed as cell viability at 10 uM incubated for 48 hrs by sulforhodamine B assay relative to control
NCI-H322M = experiment: Cytotoxicity against human NCI-H322M cells assessed as cell viability at 10 uM incubated for 48 hrs by sulforhodamine B assay relative to control
MDA-MB-435 = experiment: Cytotoxicity against human MDA-MB-435 cells assessed as cell viability at 10 uM incubated for 48 hrs by sulforhodamine B assay relative to control
SNB-75 = experiment: Cytotoxicity against human SNB-75 cells assessed as cell viability at 10 uM incubated for 48 hrs by sulforhodamine B assay relative to control
OVCAR-8 = experiment: Cytotoxicity against human OVCAR-8 cells assessed as cell viability at 10 uM incubated for 48 hrs by sulforhodamine B assay relative to control
COLO 205 = experiment: Cytotoxicity against human COLO 205 cells assessed as cell viability at 10 uM incubated for 48 hrs by sulforhodamine B assay relative to control

O=C(NCCCNc1nccc(-c2c(-c3cccc(F)c3)nc3sccn23)n1)C1CCCCC1
viability at 10 µM (SN12C): 67.3%
viability at 10 µM (CAKI-1): 55.7%
viability at 10 µM (ACHN): 45.3%
viability at 10 µM (NCI-H460): 60%
viability at 10 µM (786-0): 62.1%
viability at 10 µM (HL-60(TB)): 111%
viability at 10 µM (HOP-92): 105%
viability at 10 µM (LOX IMVI): 57.4%
viability at 10 µM (SK-OV-3): 87.7%
viability at 10 µM (SK-MEL-28): 84.5%
viability at 10 µM (K562): 65.4%
viability at 10 µM (NCI-H23): 75.7%
viability at 10 µM (NCI/ADR-RES): 72.6%
viability at 10 µM (TK-10): 78.9%
viability at 10 µM (RPMI-8226): 80%
viability at 10 µM (KM12): 84.5%
viability at 10 µM (SF-295): 89.8%
viability at 10 µM (SNB-19): 89.8%
viability at 10 µM (SF-268): 80.2%
viability at 10 µM (PC-3): 73.9%
viability at 10 µM (BT-549): 78.6%
viability at 10 µM (HOP-62): 98.2%
viability at 10 µM (NCI-H226): 63.6%
viability at 10 µM (HCT-29): 40.1%
viability at 10 µM (A549): 51.6%
viability at 10 µM (MDA-MB-468): 74.3%
viability at 10 µM (CCRF-CEM): 73.2%
viability at 10 µM (DU-145): 92.2%
viability at 10 µM (M14): 57.6%
viability at 10 µM (HCT-15): 58%
viability at 10 µM (IGROV-1): 37.5%
viability at 10 µM (OVCAR-4): 85.9%
viability at 10 µM (MDA-MB-231): 80.6%
viability at 10 µM (OVCAR-3): 82.1%
viability at 10 µM (MCF7): 36.5%
viability at 10 µM (SR): 70.2%
viability at 10 µM (NCI-H322M): 86%
viability at 10 µM (MDA-MB-435): 50.5%
viability at 10 µM (SNB-75): 87.7%
viability at 10 µM (OVCAR-8): 71.1%
viability at 10 µM (COLO 205): 49.8%

O=S(=O)(NCCCNc1nccc(-c2c(-c3cccc(F)c3)nc3sccn23)n1)c1ccc(C(F)(F)F)cc1
viability at 10 µM (SN12C): 89%
viability at 10 µM (CAKI-1): 67.9%
viability at 10 µM (ACHN): 87.8%
viability at 10 µM (NCI-H460): 98.7%
viability at 10 µM (786-0): 80.1%
viability at 10 µM (HL-60(TB)): 127%
viability at 10 µM (HOP-92): 94.8%
viability at 10 µM (LOX IMVI): 86.7%
viability at 10 µM (SK-OV-3): 77.7%
viability at 10 µM (SK-MEL-28): 116%
viability at 10 µM (K562): 69.8%
viability at 10 µM (NCI-H23): 90%
viability at 10 µM (NCI/ADR-RES): 87.2%
viability at 10 µM (TK-10): 107%
viability at 10 µM (RPMI-8226): 87.4%
viability at 10 µM (KM12): 88.5%
viability at 10 µM (SF-295): 104%
viability at 10 µM (SNB-19): 96.1%
viability at 10 µM (SF-268): 75.6%
viability at 10 µM (PC-3): 67.8%
viability at 10 µM (BT-549): 99.8%
viability at 10 µM (HOP-62): 104%
viability at 10 µM (NCI-H226): 77.5%
viability at 10 µM (HCT-29): 80.1%
viability at 10 µM (A549): 83.5%
viability at 10 µM (MDA-MB-468): 102%
viability at 10 µM (CCRF-CEM): 89.4%
viability at 10 µM (DU-145): 94.7%
viability at 10 µM (M14): 92.4%
viability at 10 µM (HCT-15): 78.8%
viability at 10 µM (IGROV-1): 66.2%
viability at 10 µM (OVCAR-4): 93%
viability at 10 µM (MDA-MB-231): 96.5%
viability at 10 µM (OVCAR-3): 92.8%
viability at 10 µM (MCF7): 82.1%
viability at 10 µM (SR): 109%
viability at 10 µM (NCI-H322M): 104%
viability at 10 µM (MDA-MB-435): 74.2%
viability at 10 µM (SNB-75): 86.4%
viability at 10 µM (OVCAR-8): 75.7%
viability at 10 µM (COLO 205): 91%
